“Also recorded” adds a separate entry of the source.
How the values were obtained:
[1] = test system: coffee berry borer Hypothenemus hampei; assay: Field trapping trials in Costa Rica (Brocap traps in arabica coffee plantation); type: in vivo; settings: Costa Rica field tests; result in words
Experimental: The trials carried out above were supplemented in 2017 in Costa Rica, in a context of larger coffee berry borer populations. The trapping trials were carried out between Feb. 21 and Apr. 27, 2017, in the commercial arabica coffee plantations of the CATIE (Centro Agronómico Tropical de Investigación y Enseñanza) [The Tropical Agricultural Research and Higher Education Center] in Turrialba, Costa Rica. […] The Coffea arabica var. caturra plantations, located at approximately 600 meters of altitude, were planted in 2010 in combination with Erythrina poeppigiana as shade trees. The rows are oriented along the contour lines with a spacing of 80 cm between the plants and 2 meters between the rows (6300 plants/ha). All of the plots benefit from considerable annual maintenance: pluriannual weeding or chemical weed-killing between the rows, chemical fertilization during fruit formation, fungicide and optionally insecticide treatments in the event of coffee berry borer infestation. The yields therefrom are medium, about 1000 kg/ha/year of green bean coffee. Brocap® traps were placed directly in the coffee trees, suspended from the branches at a height of approximately 1 meter and with a spacing between the traps of approximately 20 meters. […] The number of coffee berry borers trapped was recorded daily. […]

[2] = test system: coffee berry borer Hypothenemus hampei; assay: Field trapping trials in Brazil (Unitrap traps in arabica coffee plantation); type: in vivo; settings: Brazil field tests, result in words
Experimental: The trapping trials were carried out between Jan. 8 and Mar. 31, 2016, during the fruit maturation phase, in an arabica coffee plantation conducted under biodynamic conditions in the municipality of […] Boa Vista, in the State of São Paulo in Brazil, at an altitude of 800 m. For each test, three plots received trials, each representing a random complete block. The Coffea arabica var. tupi plantations were set up at the beginning of the 2000s in combination with shade trees (Acacia mangium, Acacia auriculiformis, […] sepium, Leucaena leucocephala). The rows are oriented along the contour lines with a variable spacing according to the plots (0.6 to 0.75×3 to 3.6 meters), and the shade trees are planted at regular intervals in the rows of coffee trees. All of the plots benefit from considerable annual maintenance: regular cutting between the rows, organic fertilization and weeding during fruit formation, foliar fertilization during bean swelling and maturation. […] The traps (Pherobank Unitrap wing model) were placed directly in the coffee trees, suspended from the branches at a height of 1.20 meters or as high as possible when the plants were smaller. The spacing between the traps is approximately 20 meters. The products used were supplied by Sigma-Aldrich. They are: The products were placed in 2 ml glass vials, in which the opening of the septum allows free diffusion by evaporation. A first diffuser contained 0.5 ml of ethanol and 0.5 ml of methanol. A second diffuser contained, where appropriate, the terpenoids diluted in paraffin (0.5 ml of (-)-limonene or 0.5 ml of (+)-limonene, 0.5 ml of paraffin and where appropriate 0.1 ml of (-)-α-pinene). The number of coffee berry borers trapped was recorded daily, and the modes tested were modified each week which represents a test. Each recording in each block represents a repetition. Between each test, the traps were washed with a 2% TFD4 solution and the diffusers were changed.

Structure (SMILES)	Effect on number of borers trapped when combined with the ethanol/methanol mixture, compared with the ethanol/methanol mixture alone [1]	Effect on number of borers trapped when combined with the ethanol/methanol mixture, compared with the alcohols alone [2]	Effect on number of borers trapped when combined with the ethanol/methanol mixture, compared with the alcohols alone ([2]; listed as (+) enantiomer of limonene)
CCCCC(CC)CO (racemic) [2-ethyl-1-hexanol, 2-Ethyl-1-hexanol]	clearly increased; also recorded: makes it possible to increase the trappings		
C=C(C)[C@H]1CC=C(C)CC1 [(+)-limonene, (R)-(+)-Limonene, reference compound]		did not make it possible to improve the captures	does not increase the number of borers trapped
C=C(C)[C@@H]1CC=C(C)CC1 [(−)-limonene, (S)-(−)-Limonene]	clearly increased	improves the attractiveness; also recorded: significantly increased; also recorded: clearly increased	
C=CC(C)(O)CCC=C(C)C (stereo not drawn) [linalool, reference compound]		virtually disappears	

— US20190307123A1, “KIT OF ATTRACTANTS FOR ATTRACTING THE COFFEE BERRY BORER” (INSTITUT NATIONAL DE LA RECHERCHE AGRONOMIQUE, priority 2016, published 2019)
